From ChEMBL document CHEMBL1142222, “A-803467, a potent and selective Nav1.8 sodium channel blocker, attenuates neuropathic and inflammatory pain in the rat” (Proc Natl Acad Sci U S A, 2007)
Active and inactive are the calls of the source. No cut-off for these calls is given here.

Assays:
DRG neuron = experiment: Suppression of evoked action potential firing in rat DRG neurons at 0.1 uM; assay type: functional
[1] = biological target: Sodium channel protein type 5 subunit alpha (Homo sapiens, UniProt Q14524); experiment: Inhibition of human Nav1.5 channel expressed in HEK293 cells at -90 mV by patch clamp method; assay type: cell-based
Endothelin-1 receptor = Endothelin-1 receptor (Homo sapiens, UniProt P25101); experiment: Displacement of [125I]endothelin-1 from endothelin ETA receptor
Histamine H2 receptor = Histamine H2 receptor (Homo sapiens, UniProt P25021); experiment: Displacement of [125I]APT from histamine H2 receptor
[2] = biological target: T1, Sodium channel protein type 3 subunit alpha (Homo sapiens, UniProt Q9NY46); experiment: Inhibition of human Nav1.3 channel expressed in HEK293 cells at -120 mV by patch clamp method; assay type: cell-based
T1 sequence (Q9NY46 whole entry): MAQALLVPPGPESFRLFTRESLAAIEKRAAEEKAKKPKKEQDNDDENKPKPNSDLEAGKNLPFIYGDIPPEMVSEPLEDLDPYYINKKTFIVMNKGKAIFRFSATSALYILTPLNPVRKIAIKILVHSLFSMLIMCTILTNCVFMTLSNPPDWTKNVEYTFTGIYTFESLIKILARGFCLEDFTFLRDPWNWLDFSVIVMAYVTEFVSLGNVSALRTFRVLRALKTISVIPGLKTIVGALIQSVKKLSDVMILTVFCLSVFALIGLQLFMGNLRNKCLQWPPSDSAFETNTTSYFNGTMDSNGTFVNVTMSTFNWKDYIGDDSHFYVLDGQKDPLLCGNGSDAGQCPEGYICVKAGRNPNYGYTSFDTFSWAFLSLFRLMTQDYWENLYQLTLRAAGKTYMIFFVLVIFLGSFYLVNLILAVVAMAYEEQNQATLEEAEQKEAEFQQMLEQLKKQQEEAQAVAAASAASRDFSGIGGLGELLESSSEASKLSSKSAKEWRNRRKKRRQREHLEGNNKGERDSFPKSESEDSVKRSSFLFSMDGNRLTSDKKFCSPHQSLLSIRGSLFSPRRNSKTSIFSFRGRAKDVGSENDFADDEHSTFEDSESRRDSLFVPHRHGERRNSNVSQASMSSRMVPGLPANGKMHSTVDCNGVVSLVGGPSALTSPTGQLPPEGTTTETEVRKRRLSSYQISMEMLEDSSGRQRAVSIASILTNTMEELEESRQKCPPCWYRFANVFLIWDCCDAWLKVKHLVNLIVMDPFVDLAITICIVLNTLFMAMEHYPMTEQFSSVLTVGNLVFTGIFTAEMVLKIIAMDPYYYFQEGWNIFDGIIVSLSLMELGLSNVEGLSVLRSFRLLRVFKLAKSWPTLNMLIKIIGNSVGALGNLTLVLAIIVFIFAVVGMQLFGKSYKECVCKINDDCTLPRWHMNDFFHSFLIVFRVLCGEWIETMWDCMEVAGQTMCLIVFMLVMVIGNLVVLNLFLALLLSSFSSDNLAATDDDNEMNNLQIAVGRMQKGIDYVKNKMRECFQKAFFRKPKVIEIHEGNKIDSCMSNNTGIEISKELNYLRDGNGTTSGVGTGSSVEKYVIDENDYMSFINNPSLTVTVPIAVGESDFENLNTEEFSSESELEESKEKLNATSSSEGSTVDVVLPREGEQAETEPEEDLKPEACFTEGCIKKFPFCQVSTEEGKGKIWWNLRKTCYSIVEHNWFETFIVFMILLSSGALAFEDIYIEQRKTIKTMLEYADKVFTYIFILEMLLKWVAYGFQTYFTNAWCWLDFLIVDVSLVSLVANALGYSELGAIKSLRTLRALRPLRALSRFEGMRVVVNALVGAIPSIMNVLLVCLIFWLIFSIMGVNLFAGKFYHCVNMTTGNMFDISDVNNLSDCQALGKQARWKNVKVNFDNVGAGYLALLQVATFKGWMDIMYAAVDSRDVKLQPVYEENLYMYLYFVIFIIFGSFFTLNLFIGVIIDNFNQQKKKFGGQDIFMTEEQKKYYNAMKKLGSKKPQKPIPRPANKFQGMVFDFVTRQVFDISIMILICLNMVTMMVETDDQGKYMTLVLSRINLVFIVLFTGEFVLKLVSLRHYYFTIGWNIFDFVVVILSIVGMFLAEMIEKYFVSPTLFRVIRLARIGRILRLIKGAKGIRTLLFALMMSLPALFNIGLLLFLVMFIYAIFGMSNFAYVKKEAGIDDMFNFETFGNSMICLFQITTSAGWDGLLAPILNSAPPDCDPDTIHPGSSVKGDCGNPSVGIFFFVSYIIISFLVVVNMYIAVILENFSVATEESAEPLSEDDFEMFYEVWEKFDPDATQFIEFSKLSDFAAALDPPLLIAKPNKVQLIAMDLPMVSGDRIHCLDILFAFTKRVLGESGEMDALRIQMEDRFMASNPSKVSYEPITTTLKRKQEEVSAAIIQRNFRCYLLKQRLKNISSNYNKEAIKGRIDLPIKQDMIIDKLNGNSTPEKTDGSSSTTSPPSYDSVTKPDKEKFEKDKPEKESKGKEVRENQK

P2X purinoceptor 3 = P2X purinoceptor 3 (Homo sapiens, UniProt P56373); experiment: Inhibition of P2X3 receptor
[3] = biological target: T2, Sodium channel protein type 10 subunit alpha (Rattus norvegicus, UniProt Q62968); experiment: Inhibition of Nav1.8 channel in rat dorsal root ganglion neurons assessed as blockade of TTX-R current by patch clamp method; assay type: tissue-based
T2 sequence (Q62968 whole entry): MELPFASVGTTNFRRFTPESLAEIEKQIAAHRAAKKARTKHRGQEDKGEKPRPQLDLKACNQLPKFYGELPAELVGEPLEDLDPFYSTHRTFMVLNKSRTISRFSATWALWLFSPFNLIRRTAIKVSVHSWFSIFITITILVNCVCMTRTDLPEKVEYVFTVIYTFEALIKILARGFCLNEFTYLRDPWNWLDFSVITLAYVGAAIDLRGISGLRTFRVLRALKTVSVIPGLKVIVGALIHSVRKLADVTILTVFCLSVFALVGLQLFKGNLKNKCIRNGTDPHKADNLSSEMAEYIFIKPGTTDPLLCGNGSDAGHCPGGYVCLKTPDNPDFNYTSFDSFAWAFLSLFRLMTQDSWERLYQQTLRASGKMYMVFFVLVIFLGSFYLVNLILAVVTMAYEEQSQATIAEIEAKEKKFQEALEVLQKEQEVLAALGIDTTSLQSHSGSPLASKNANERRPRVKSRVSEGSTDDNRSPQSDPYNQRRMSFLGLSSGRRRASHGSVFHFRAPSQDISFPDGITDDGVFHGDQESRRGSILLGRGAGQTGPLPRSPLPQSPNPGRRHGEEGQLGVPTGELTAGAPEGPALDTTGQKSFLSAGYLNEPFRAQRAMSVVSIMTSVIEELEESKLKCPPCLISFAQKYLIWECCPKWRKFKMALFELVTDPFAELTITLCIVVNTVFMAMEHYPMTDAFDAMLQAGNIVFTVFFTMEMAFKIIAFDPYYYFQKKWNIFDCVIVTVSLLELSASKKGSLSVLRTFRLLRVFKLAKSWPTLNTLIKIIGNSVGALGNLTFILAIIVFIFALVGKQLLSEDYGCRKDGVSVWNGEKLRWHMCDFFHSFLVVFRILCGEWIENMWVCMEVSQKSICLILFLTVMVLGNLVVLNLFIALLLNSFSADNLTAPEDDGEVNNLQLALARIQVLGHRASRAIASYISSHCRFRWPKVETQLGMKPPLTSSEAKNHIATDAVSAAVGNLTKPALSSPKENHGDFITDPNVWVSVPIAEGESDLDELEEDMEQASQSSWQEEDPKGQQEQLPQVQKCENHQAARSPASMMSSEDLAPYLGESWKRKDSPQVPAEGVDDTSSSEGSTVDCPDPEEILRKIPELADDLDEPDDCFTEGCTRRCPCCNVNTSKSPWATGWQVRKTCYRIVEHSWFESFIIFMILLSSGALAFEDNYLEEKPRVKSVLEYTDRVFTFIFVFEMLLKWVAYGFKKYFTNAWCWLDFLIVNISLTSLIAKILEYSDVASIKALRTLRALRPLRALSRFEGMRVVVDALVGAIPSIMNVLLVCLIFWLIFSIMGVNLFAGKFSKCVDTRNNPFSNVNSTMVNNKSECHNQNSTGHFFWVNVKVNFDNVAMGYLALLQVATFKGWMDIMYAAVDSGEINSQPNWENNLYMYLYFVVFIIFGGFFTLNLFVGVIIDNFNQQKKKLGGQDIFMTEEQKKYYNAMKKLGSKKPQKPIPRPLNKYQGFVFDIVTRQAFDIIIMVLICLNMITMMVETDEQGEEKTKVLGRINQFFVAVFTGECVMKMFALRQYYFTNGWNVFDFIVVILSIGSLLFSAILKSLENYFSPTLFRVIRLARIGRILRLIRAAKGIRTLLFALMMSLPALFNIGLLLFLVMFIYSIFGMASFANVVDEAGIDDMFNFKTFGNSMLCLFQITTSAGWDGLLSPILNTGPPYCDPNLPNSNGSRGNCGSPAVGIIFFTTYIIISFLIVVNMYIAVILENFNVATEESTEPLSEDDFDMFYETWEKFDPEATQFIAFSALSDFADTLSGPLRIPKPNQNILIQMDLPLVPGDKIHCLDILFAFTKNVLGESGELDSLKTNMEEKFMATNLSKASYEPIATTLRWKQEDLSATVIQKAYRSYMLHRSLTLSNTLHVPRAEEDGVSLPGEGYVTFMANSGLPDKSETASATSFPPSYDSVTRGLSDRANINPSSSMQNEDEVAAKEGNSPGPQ

[4] = biological target: Kappa-type opioid receptor (Homo sapiens, UniProt P41145); experiment: Displacement of [3H]U-69593 from opioid kappa receptor
Rattus norvegicus [5] = experiment: Motor effect in rat assessed as latency to fall at 300 mg/kg, ip by edge balance test; assay type: functional; conditions: route intraperitoneal
Mus musculus = experiment: Analgesic activity in mouse visceral pain model assessed as acetic acid induced writhing at 100 mg/kg, ip; assay type: functional; conditions: route intraperitoneal
D(3) dopamine receptor = D(3) dopamine receptor (Homo sapiens, UniProt P35462); experiment: Displacement of [3H]spiperone from dopamine D3 receptor
Rattus norvegicus [6] = experiment: Analgesic activity in ip dosed rat carrageenan-induced […] pain model; assay type: functional
D(4) dopamine receptor = D(4) dopamine receptor (Homo sapiens, UniProt P21917); experiment: Displacement of [3H]spiperone from dopamine D4.4 receptor
[7] = biological target: C-C chemokine receptor type 1 (Homo sapiens, UniProt P32246); experiment: Displacement of [125I]MIP1-alpha from CCR1 receptor
Rattus norvegicus [8] = experiment: Antinociceptive activity in rat assessed as reduction of spontaneous firing of spinal dorsal horn wide dynamic range neurons at 20 mg/kg, iv; assay type: functional, Dorsal horn of spinal cord; set-up: scale not given: the % may be the effect or the level left
Nociceptin receptor = Nociceptin receptor (Homo sapiens, UniProt P41146); experiment: Displacement of [3H]nociceptin from ORL1 receptor
[9] = biological target: Delta-type opioid receptor (Homo sapiens, UniProt P41143); experiment: Displacement of [3H]DADLE from opioid delta receptor
Rattus norvegicus [10] = experiment: Analgesic activity in ip dosed rat complete Freund's adjuvant-induced thermal hyperalgesia model assessed as paw withdrawal latency after 4 days; assay type: functional; conditions: 96 h
Rattus norvegicus [11] = experiment: Analgesic activity in ip dosed rat complete Freund's adjuvant-induced mechanical hyperalgesia model assessed as paw withdrawal latency after 2 days; assay type: functional; conditions: 48 h
Rattus norvegicus [12] = experiment: Analgesic activity in rat acute mechanical stimulation nociception model assessed as paw withdrawal latency at 100 mg/kg, ip; assay type: functional; conditions: route intraperitoneal
Rattus norvegicus [13] = species on record: Rattus norvegicus; experiment: Motor effect in rat assessed as locomotory activity; assay type: functional
Rattus norvegicus [14] = experiment: Analgesic activity in ip dosed rat cyclophosphamide induced cyctitis model at 100 mg/kg, ip; assay type: functional; conditions: route intraperitoneal
D(1B) dopamine receptor = D(1B) dopamine receptor (Homo sapiens, UniProt P21918); experiment: Displacement of [3H]SCH23390 from dopamine D5 receptor
Rattus norvegicus [15] = experiment: Analgesic activity in rat acute thermal stimulation nociception model assessed as paw withdrawal latency at 100 mg/kg, ip; assay type: functional; conditions: route intraperitoneal
P2X purinoceptor 2 = P2X purinoceptor 2 (Homo sapiens, UniProt Q9UBL9); experiment: Displacement of [3H]alpha,beta-methyl ATP from P2X receptor
Chain of P2X purinoceptor 2 (Q9UBL9 whole entry): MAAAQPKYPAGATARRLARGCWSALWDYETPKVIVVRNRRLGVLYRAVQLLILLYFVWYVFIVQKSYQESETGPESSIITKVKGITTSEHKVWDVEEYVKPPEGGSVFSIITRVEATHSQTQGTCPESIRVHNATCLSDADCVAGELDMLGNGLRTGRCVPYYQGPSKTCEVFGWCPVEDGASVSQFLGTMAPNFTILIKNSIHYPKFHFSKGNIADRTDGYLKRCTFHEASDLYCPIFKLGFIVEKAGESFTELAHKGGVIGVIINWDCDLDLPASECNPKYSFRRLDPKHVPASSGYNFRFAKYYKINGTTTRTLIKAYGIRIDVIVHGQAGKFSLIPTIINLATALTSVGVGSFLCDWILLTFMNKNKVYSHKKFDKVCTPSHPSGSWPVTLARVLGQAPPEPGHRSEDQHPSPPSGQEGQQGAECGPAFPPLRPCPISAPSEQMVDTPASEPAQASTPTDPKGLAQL

[16] = biological target: Muscarinic acetylcholine receptor M2 (Homo sapiens, UniProt P08172); experiment: Displacement of [3H]AF-DX384 from muscarinic M2 receptor
[17] = Bioavailability in rat at 10 mg/kg, ip; assay type: ADME, organism-based; conditions: in vivo
Rattus norvegicus [18] = experiment: Analgesic activity in rat complete Freund's adjuvant-induced mechanical hyperalgesia model assessed as paw withdrawal latency at 100 mg/kg, ip after 4 days; assay type: functional; conditions: route intraperitoneal
[19] = biological target: Muscarinic acetylcholine receptor M3 (Homo sapiens, UniProt P20309); experiment: Displacement of [3H]4DAMP from muscarinic M3 receptor
Rattus norvegicus [20] = experiment: Analgesic activity in rat chronic constriction injury model of mechanical allodynia at 100 mg/kg, ip; assay type: functional; conditions: route intraperitoneal
Rattus norvegicus [21] = experiment: Analgesic activity in ip dosed rat capsaicn induced mechanical allodynia model; assay type: functional
Rattus norvegicus [22] = experiment: Analgesic activity in rat capsaicn induced mechanical allodynia model at 300 mg/kg, ip; assay type: functional; conditions: route intraperitoneal
[23] = biological target: Sigma non-opioid intracellular receptor 1 (Homo sapiens, UniProt Q99720); experiment: Displacement of [3H]pentazocine from sigma1 receptor
Chain of Sigma non-opioid intracellular receptor 1 (Q99720 whole entry): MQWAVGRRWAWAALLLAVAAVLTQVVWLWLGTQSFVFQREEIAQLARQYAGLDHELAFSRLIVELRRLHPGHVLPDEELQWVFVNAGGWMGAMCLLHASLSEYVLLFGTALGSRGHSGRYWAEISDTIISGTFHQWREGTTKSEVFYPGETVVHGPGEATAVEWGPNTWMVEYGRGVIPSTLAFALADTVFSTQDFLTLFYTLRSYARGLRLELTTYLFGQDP

[24] = biological target: Transient receptor potential cation channel subfamily V member 1 (Homo sapiens, UniProt Q8NER1); experiment: Inhibition of TRPV1
[25] = biological target: Muscarinic acetylcholine receptor M4 (Homo sapiens, UniProt P08173); experiment: Displacement of [3H]4DAMP from muscarinic M4 receptor
[26] = biological target: Sodium channel protein type 2 subunit alpha (Homo sapiens, UniProt Q99250); experiment: Inhibition of human Nav1.2 channel expressed in HEK293 cells at -60 mV by patch clamp method; assay type: cell-based
Rattus norvegicus [27] = experiment: Motor effect in ip dosed rat assessed as latency to fall by edge balance test; assay type: functional
[28] = Tmax in rat at 10 mg/kg, po; assay type: ADME, organism-based; set-up: dose 10 mg/kg, route oral; conditions: in vivo
Rattus norvegicus [29] = experiment: Analgesic activity in rat colonic distension model at 100 mg/kg, ip; assay type: functional; conditions: route intraperitoneal
Rattus norvegicus [30] = experiment: Analgesic activity in rat complete Freund's adjuvant-induced thermal hyperalgesia model assessed as paw withdrawal latency at 100 mg/kg, ip after 4 days; assay type: functional; conditions: route intraperitoneal
[31] = biological target: T2, Sodium channel protein type 10 subunit alpha; experiment: Inhibition of Nav1.8 channel in rat dorsal root ganglion neurons assessed as blockade of TTX-R current at -100 mV by patch clamp method; assay type: tissue-based
Rattus norvegicus [32] = experiment: Analgesic activity in ip dosed rat cyclophosphamide induced cyctitis model; assay type: functional
[33] = biological target: T1, Sodium channel protein type 3 subunit alpha; experiment: Inhibition of human Nav1.3 channel expressed in HEK293 cells at -60 mV by patch clamp method; assay type: cell-based
[34] = Volume of distribution in rat; assay type: ADME, organism-based; conditions: in vivo, read-out: Vbeta
Rattus norvegicus [35] = experiment: Analgesic activity in ip dosed rat skin incision model of post-operative pain after 24 hrs; assay type: functional
Rattus norvegicus [36] = experiment: Analgesic activity in rat carrageenan-induced […] pain model at 100 mg/kg, ip; assay type: functional; conditions: route intraperitoneal
D(2) dopamine receptor = D(2) dopamine receptor (Homo sapiens, UniProt P14416); experiment: Displacement of [3H]spiperone from dopamine D2 receptor
Chain of D(2) dopamine receptor (P14416 whole entry): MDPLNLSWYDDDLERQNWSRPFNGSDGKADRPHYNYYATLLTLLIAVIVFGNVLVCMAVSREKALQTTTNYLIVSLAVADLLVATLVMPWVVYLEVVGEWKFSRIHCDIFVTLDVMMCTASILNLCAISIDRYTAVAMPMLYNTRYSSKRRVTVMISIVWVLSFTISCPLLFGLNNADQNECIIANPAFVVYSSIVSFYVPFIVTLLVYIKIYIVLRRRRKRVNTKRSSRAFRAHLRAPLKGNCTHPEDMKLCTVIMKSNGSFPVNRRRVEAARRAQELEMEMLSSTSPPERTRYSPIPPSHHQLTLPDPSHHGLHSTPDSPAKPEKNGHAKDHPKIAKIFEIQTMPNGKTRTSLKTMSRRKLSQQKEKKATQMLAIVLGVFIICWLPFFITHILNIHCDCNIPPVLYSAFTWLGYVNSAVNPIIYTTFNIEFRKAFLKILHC

Rattus norvegicus [37] = experiment: Antinociceptive activity in rat assessed as reduction of von Frey evoked firing of spinal dorsal horn wide dynamic range neurons at 20 mg/kg, iv; assay type: functional, Dorsal horn of spinal cord; set-up: scale not given: the % may be the effect or the level left
[38] = Elimination half life in iv dosed rat; assay type: ADME, organism-based; conditions: in vivo
Rattus norvegicus [39] = experiment: Analgesic activity in rat skin incision model of post-operative pain at 100 mg/kg, ip after 2 hrs; assay type: functional; conditions: route intraperitoneal
[40] = biological target: 5-hydroxytryptamine receptor 5A (Homo sapiens, UniProt P47898); experiment: Displacement of [3H]LSD from 5HT5A receptor

## COc1cc(NC(=O)c2ccc(-c3ccc(Cl)cc3)o2)cc(OC)c1
DRG neuron
  Activity: inactive
[1]
  IC50: 7.34 µM
Endothelin-1 receptor
  IC50: > 10 µM
Histamine H2 receptor
  IC50: > 10 µM
[2]
  IC50: 11.8 µM
P2X purinoceptor 3
  IC50: > 10 µM
[3]
  IC50: 0.14 µM
[4]
  IC50: > 10 µM
Rattus norvegicus [5]
  Activity: 0%
Mus musculus
  Activity: 34%
D(3) dopamine receptor
  IC50: > 10 µM
Rattus norvegicus [6]
  ED50: 100 mg/kg
D(4) dopamine receptor
  IC50: > 10 µM
[7]
  IC50: > 10 µM
Rattus norvegicus [8]
  Activity: 66%
Nociceptin receptor
  IC50: > 10 µM
[9]
  IC50: > 10 µM
Rattus norvegicus [10]
  ED50: 100 mg/kg
Rattus norvegicus [11]
  ED50: > 100 mg/kg
Rattus norvegicus [12]
  Activity: 70%
Rattus norvegicus [13]
  ED50: > 300 mg/kg
Rattus norvegicus [14]
  Activity: 0%
D(1B) dopamine receptor
  IC50: > 10 µM
Rattus norvegicus [15]
  Activity: 0%
P2X purinoceptor 2
  IC50: > 10 µM
[16]
  IC50: > 10 µM
[17]
  bioavailability: 26%
Rattus norvegicus [18]
  Activity: 42%
[19]
  IC50: > 10 µM
Rattus norvegicus [20]
  Activity: 56%
Rattus norvegicus [21]
  ED50: 100 mg/kg
Rattus norvegicus [22]
  Activity: 46%
[23]
  IC50: > 10 µM
[24]
  IC50: > 10 µM
[25]
  IC50: > 10 µM
[26]
  IC50: 7.38 µM
Rattus norvegicus [27]
  ED50: > 300 mg/kg
[28]
  Tmax: 1.5 h
Rattus norvegicus [29]
  Activity: 25%
Rattus norvegicus [30]
  Activity: 71%
[31]
  IC50: 1 µM
Rattus norvegicus [32]
  ED50: > 100 mg/kg
[33]
  IC50: 2.45 µM
[34]
  Vd: 11.5 L/kg
Rattus norvegicus [35]
  ED50: > 100 mg/kg
Rattus norvegicus [36]
  Activity: 54%
D(2) dopamine receptor
  IC50: > 10 µM
Rattus norvegicus [37]
  Activity: 53%
[38]
  half-life: 4.9 h
Rattus norvegicus [39]
  Activity: 14%
[40]
  IC50: > 10 µM
